Source: US9662303B2, “Composition and method for treating cancer” (PG-Pharma, LLC, priority 2006, dated 2017)
Read-outs that look alike come from different tables or passages of the source.

How the values were obtained:
[1] = system: human SH-SY5Y neuroblatsoma cells; assay: Anti-proliferation/cytotoxic activity of DTS and DTS-BSA complex on SH-SY5Y cells; assay type: cell-based; details: for Percentage anti-proliferation activity: SH-SY5Y
Text: 3. […] 4. […] See Williams et al., (2004) West Indian Medical Journal 53 (4) pp. 208-219 for the preparation of cell culture medium and assessment of anti-proliferation/cytotoxic activity on the human SH-SY5Y neuroblatsoma cells (12); the previous reference is hereby incorporated by reference in its entirety. A summary of the results from an experiment involving the above synthesis method were as follows: […]

[2] = Spectrophotometric absorbance binding experiments on pure tyrosine and phenylalanine; details: room temperature
Text: Here is an outline of these experiments:
1. A plot of Absorbance (nm) with time (mins) of the interaction with tyrosine and DTS gives a normal distribution (Gaussian) with the highest optimum at room temperature.
2. As temperature is increased there is a lowering of the optimum on the graph until a straight line is created.
4. Phenylalanine, which is an aromatic amino acid, gives a straight line at room temperature with DTS, while DTS and tyrosine give a Gaussian distribution; the height of the curve is a function of the ratio of the DTS used.

[3] = system: mice; assay: Toxicity to mice; assay type: in vivo; details: up to 30 mg/kg body weight
Method: In addition, concentration of up to 30 mg/kg body weigh was not toxic to mice. DTS seems to activate the bone marrow at 10 mg/kg body weight since granulocytes differential count was increased by 50% (5).

[4] = system: Peyer's patches; assay: Effect on Peyer's patches; details: in vivo
Text: The manipulation of various homing factors e.g. L-selectin-mAb LM1-3 and addressin-mAdCAM-1 and integrins such as alpha4beta7 as therapeutic targets on Peyer's patches dendritic cells is a rapidly expanding field in drug development against intestinal bowel diseases (IBD) e.g. colitis, colorectal carcinoma and Chrohn's disease (20;21). DTS caused an enlargement in Peyer's patches possible by an activation of cell proliferation. Thus, based on this finding we hereby proposed that the effect of DTS on the Peyer's patches should be elucidated with the hope of developing drugs against IBD.

[5] = system: immune system; assay: Stimulation of the immune system in mice; assay type: in vivo; details: 11 mg/kg body weight
Method: The DTS-albumin formulation of the present invention can also be administered to a patient with a formulation dosage that is predetermined based upon data specific to that patient. For example, weight, metabolic factors, genetic factors, etc. can contribute to varying predetermined dosage amounts that are used to prescribe the specific predetermined dosage to the patient. Preferably the formulation dosage is between about 0.023 mg/kg and about 2.3 mg/kg body weight. […] The DTS-BSA complex was active at 0.5 ng/mL in vitro dose, a ratio of about 480. Thus, 11 divided by 480 is about 0.023 mg/Kg body weight (minimum). Similarly, the maximum is about 2.3 mg/Kg body weight. If we assumed that the maximum weigh of a human to be treated with the ATS-albumin complex Is 70 Kg, then the upper limit would be […]=1.61 mg/70 kg body weight.

[6] = system: SH-SY5Y neuroblastoma; details: cited from earlier work
[7] = system: MCF-7 mammary carcinoma; details: cited from earlier work
[8] = system: IPC-melanoma; details: ref (9), cited from earlier work
[9] = system: A549; details: ref (9); cited from earlier work
[10] = system: A637 primary bladder carcinoma; details: ref (9); cited from earlier work
[11] = system: Jurkat leukaemia; details: ref (10); cited from earlier work
[12] = system: ovarian A2780; details: ref (10); cited from earlier work
[13] = system: ovarian OVCAR4; details: ref (10); cited from earlier work
[14] = system: fibrosarcoma HT1080; details: ref (10); cited from earlier work
[15] = system: non-small cell lung cancer H460; details: ref (10); cited from earlier work
[16] = system: breast M231; details: ref (10); cited from earlier work
[17] = system: adenocarcinoma HeLa; details: ref (10); cited from earlier work
[18] = system: human TE-671 sarcoma cell line; details: 0.56 μM, ref (9); cited from earlier work
[19] = biological target: mitogen-activated protein kinases phosphatase 1 (MKP-1) (Homo sapiens, UniProt P28562); details: in vitro; ref (12); cited from earlier work
[20] = biological target: T1, Bovine Serum Albumin (BSA) (Bos taurus, UniProt P02769); details: 500 ng/mL (0.5 μg/mL), pH 6.0; ref (11); cited from earlier work
[21] = biological target: T1, Bovine Serum Albumin (BSA); details: personal communication; cited from earlier work
[22] = system: MAPKinase (erk 1 and erk 2); details: induced by basic fibroblast growth factor (bFGF); 1.0 μM; refs (7;11); cited from earlier work
[23] = system: human fibroblast (HOFA) cell line; details: over seven days; ref (9); cited from earlier work
[24] = system: bone marrow; details: cited from earlier work
[25] = system: Th-1 and Th-2 cytokines; details: Human Mixed Lymphocytes Responses, CD3 dependent activation, cited from earlier work
[26] = system: thymus; details: old mice; refs (5;11); cited from earlier work
[27] = system: cadherin-5; details: human SH-SY5YTRK-A neuroblastoma cells pre-treated with NgF; ref (11); cited from earlier work
[28] = system: Erythrocytes (red blood cells, RBCs); details: RBCs separated from WBCs, in buffer, concentrations higher than those effective on cancer cells; refs (11;32); cited from earlier work
[29] = system: Starfish embryos; details: ref (11); cited from earlier work

T1 sequence (P02769 25-607): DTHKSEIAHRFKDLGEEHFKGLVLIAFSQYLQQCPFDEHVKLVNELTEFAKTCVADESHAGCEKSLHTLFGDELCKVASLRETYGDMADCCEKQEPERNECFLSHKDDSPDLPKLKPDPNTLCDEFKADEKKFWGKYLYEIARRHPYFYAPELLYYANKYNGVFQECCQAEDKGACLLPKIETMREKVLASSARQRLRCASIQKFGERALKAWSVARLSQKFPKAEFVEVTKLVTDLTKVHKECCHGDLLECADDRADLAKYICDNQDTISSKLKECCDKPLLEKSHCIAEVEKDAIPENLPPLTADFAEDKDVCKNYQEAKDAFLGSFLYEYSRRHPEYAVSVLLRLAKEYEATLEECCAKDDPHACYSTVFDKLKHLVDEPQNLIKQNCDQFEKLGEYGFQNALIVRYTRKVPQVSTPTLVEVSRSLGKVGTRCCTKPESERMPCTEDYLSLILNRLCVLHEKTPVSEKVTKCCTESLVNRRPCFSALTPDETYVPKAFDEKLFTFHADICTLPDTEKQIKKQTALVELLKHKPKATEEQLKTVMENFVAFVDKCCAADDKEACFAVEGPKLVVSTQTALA
mitogen-activated protein kinases phosphatase 1 (MKP-1), sequence (P28562 whole entry, species assumed): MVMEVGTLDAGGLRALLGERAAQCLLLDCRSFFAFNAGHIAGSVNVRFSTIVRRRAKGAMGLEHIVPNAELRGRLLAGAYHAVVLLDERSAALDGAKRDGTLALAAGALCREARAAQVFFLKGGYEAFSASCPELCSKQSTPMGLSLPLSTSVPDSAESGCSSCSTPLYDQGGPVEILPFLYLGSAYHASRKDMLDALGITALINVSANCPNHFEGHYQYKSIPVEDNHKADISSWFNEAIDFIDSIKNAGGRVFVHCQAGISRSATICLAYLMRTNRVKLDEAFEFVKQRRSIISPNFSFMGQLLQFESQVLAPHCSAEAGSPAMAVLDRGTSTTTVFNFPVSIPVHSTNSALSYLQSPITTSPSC

**Q.** What does the source list for `c1ccc(CSSSCc2ccccc2)cc1` [DTS, dibenzyl trisulphide]?
**A.** effective in vitro dose ([1]; DTS alone, in vitro, cell system not stated): 240 ng/mL; Percentage anti-proliferation activity ([1]; DTS at 39 ng/mL (No BSA)): 1.68%; Percentage anti-proliferation activity ([1]; DTS at 78 ng/mL (No BSA)): 38.22%; Percentage anti-proliferation activity ([1]; DTS at 1.25 μg/mL (No BSA)): 93.00%; binding to aromatic amino acids (absorbance) [2]: binds only to tyrosine; toxicity to mice [3]: not toxic; Peyer's patches size [4]: enlargement; effect on the immune system [5]: stimulated the immune system; enhancement of cytotoxic action by complexing DTS to Bovine Serum Albumin ([6]; SH-SY5Y in vitro, refs (11;12)): 70 fold; IC50 ([6]; SH-SY5Y neuroblastoma, ref (9)): 430 nM; IC50 ([7]; ref (9)): 2240 nM; IC50 ([7]; ref (10)): 6600 nM; nuclear morphology (mitotic catastrophe) ([8]; IPC-melanoma cells exposed to 1.0 μM): nuclear fragmentation; IC50 ([8]; IPC-melanoma): 2900 nM; IC50 [9]: 15800 nM; IC50 [10]: 18800 nM; IC50 [11]: 350 nM; IC50 [12]: 400 nM; IC50 [13]: 1400 nM; IC50 [14]: 1900 nM; IC50 [15]: 5100 nM; IC50 [16]: 2400 nM; IC50 [17]: 2500 nM; anti-proliferation/cytotoxic activity [18]: 44.67%; binding of MKP-1 to its substrate OMFP [19]: enhance; protection of BSA from denaturation [20]: 50.83%; binding of glucose to BSA [21]: inhibit; hyperphosphorylation of MAPKinase (erk 1 and erk 2) signalling [22]: 30%; toxicity to human fibroblast (HOFA) cell line [23]: not to be toxic; increase of granulocytes differential count ([24]; 10 mg/kg body weight, ref (5)): 50%; production of granulocytes and erythrocytes ([24]; refs (5;11)): increased; Th-2 cytokines such as IL-4 [25]: up-regulated; Th-1 cytokines ([25]; ref (11)): down regulates; thymic weight [26]: increase; expression of cadherin-5 [27]: up-regulate; effect on erythrocytes [28]: cell-cell attraction with morphological changes without lysis; effect on protein biosynthesis [29]: did not have any effect
